# In PMC4100265, “Inhibition of Human Cytochrome P450 Enzymes by Allergen Removed Rhus verniciflua Stoke Standardized Extract and Constituents” (Evidence-based Complementary and Alternative Medicine : eCAM, 2014):
# Like-named read-outs stand apart in the source and are kept apart here.
# Tests used:
# Format in all cases: in vitro ADME
# recombinant human CYP3A4 = target: T1, recombinant human CYP3A4 (Homo sapiens, UniProt P08684); experiment: Luminogenic P450-Glo enzyme inhibition assay, CYP3A4
# T1 construct: purchased Promega (P450-Glo Screening system); host or cells: baculovirus expression system
# T1 sequence (P08684 whole entry): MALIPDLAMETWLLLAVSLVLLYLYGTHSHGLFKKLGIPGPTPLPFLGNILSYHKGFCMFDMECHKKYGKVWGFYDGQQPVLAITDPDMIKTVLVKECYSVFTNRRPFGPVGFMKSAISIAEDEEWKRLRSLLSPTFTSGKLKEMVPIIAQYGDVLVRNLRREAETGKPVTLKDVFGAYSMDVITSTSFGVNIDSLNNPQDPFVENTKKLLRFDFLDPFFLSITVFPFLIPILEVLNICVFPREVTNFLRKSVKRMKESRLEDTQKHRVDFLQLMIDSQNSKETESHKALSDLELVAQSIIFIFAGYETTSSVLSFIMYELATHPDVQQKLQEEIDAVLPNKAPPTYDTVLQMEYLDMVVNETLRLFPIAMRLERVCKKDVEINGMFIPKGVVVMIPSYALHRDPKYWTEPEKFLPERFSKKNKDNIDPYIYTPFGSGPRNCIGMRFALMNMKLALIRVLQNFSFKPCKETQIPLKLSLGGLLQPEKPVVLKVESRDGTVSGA
# Procedure: (§1) The assay was carried out using P450-Glo Screening system from Promega (Promega Inc., Madison Wis., USA). It contains recombinant human CYP1A2, CYP2C9, CYP2C19, CYP2D6, and CYP3A4 enzymes in the membranes produced by a baculovirus expression system, specific luminogenic cytochrome enzyme substrates (luciferin 6-methyl ether, luciferin 6-benzyl ether, 6-deoxyluciferin, ethylene glycol ester of 6-deoxyluciferin, and ethylene glycol ester of luciferin 6-methyl ether), negative control membranes, a nicotinamide adenine dinucleotide phosphate hydrogen (NADPH) regeneration system containing NADP+, glucose-6-phosphate, magnesium chloride (MgCl2) and glucose-6-phosphate dehydrogenase (functioning to initiate and sustain the CYP450 reaction by maintaining a non-limiting NADPH system), reaction buffer, luciferin detection reagent, and Luciferin-Free Water. The negative control membranes were devoid of CYP activity. The luminogenic inhibition assays were performed following the protocols from Promega Corp. (Technical Bulletin, P450-Glo Assays, Promega Corp., 2009) and previous studies. […] The 12.5 μL of the luciferin-free water was added individually in both the “untreated” wells representing the values of total CYP activity and the “minus-P450 control” wells representing the values of the CYP-independent background luminescence. Secondly, 12.5 μL of the 4× reaction mixture (containing human CYP membrane preparations, the appropriate luminogenic substrate, and potassium phosphate buffer) was added to the “treated” and the “untreated” wells. The 12.5 μL of the 4× control reaction mixture (containing membrane preparations devoid of CYP enzymes, the appropriate luminogenic substrate, and potassium phosphate buffer) was added to the “minus-P450 control” wells. The plate was preincubated at room temperature (25°C) for 10 min, and then 25 μL of the 2× NADPH regeneration system was added to initiate the reaction. […] The luminescence in all of the samples was measured using a microplate reader as relative light units (RLU) after 20 min incubation to stabilize the luminescent signal. The assay experiments were repeated three independent times. The amount of light produced is directly proportional to the CYP enzyme activity. The net signals from untreated CYP reactions represent total CYP activity (100%). The modulation of the CYP activity by the test compound was determined by comparing the changes from the average net signal of untreated CYP reactions with the changes observed from the test compound. […] USA).
# recombinant human CYP1A2 = target: T2, recombinant human CYP1A2 (Homo sapiens, UniProt P05177); experiment: Luminogenic P450-Glo enzyme inhibition assay, CYP1A2
# T2 construct: purchased Promega (P450-Glo Screening system); host or cells: baculovirus expression system
# T2 sequence (P05177 1-516): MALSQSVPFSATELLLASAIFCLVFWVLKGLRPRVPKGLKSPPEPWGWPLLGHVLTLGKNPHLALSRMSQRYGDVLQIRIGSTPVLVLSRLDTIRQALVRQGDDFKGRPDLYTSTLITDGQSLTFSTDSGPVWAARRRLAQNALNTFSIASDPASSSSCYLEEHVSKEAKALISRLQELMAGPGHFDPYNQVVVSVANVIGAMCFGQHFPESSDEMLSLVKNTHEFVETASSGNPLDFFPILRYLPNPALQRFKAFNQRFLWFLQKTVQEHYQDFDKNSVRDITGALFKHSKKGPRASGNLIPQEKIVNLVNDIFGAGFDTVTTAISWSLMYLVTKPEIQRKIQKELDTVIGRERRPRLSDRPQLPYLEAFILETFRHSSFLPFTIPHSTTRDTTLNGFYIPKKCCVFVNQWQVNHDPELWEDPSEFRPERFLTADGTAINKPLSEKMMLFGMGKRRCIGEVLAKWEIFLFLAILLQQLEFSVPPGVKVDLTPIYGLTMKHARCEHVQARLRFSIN
# Procedure: as §1
# recombinant human CYP2C9 = target: T3, recombinant human CYP2C9 (Homo sapiens, UniProt P11712); experiment: Luminogenic P450-Glo enzyme inhibition assay, CYP2C9
# T3 construct: purchased Promega (P450-Glo Screening system); host or cells: baculovirus expression system
# T3 sequence (P11712 whole entry): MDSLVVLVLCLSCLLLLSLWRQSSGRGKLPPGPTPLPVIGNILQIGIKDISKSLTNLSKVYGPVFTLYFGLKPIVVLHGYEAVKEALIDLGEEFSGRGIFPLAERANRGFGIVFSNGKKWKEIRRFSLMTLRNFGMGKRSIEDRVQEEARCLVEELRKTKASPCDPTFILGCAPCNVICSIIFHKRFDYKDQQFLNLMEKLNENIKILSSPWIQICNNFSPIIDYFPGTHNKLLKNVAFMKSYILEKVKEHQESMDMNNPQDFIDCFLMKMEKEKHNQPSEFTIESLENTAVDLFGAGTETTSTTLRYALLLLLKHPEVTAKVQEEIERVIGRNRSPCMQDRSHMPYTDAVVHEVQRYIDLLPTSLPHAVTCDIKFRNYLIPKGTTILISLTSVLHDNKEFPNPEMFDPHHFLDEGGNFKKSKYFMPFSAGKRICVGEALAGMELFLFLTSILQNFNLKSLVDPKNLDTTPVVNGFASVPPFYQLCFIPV
# Procedure: as §1
# [1] = target: T4, recombinant human CYP2C19 (Homo sapiens, UniProt P33261); experiment: Luminogenic P450-Glo enzyme inhibition assay, CYP2C19
# T4 construct: purchased Promega (P450-Glo Screening system); host or cells: baculovirus expression system
# T4 sequence (P33261 whole entry): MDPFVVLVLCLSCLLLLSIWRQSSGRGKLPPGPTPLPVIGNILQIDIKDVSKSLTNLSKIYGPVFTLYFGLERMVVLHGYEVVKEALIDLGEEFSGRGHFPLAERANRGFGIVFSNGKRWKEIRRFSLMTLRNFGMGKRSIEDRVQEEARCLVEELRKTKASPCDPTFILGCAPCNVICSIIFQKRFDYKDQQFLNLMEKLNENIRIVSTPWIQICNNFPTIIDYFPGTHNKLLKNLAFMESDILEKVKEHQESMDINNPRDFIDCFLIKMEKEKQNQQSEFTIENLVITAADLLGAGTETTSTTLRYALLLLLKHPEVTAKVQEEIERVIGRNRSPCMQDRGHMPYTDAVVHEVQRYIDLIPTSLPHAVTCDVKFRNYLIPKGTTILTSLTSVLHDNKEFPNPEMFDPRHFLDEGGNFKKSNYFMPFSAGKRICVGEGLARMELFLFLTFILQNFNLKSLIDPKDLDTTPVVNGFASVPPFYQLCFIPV
# Procedure: as §1
# CYP2D6 = target: T5, CYP2D6 (Homo sapiens, UniProt P10635); experiment: Luminogenic P450-Glo enzyme inhibition assay, CYP2D6
# T5 construct: purchased Promega (P450-Glo Screening system); host or cells: baculovirus expression system
# T5 sequence (P10635 whole entry): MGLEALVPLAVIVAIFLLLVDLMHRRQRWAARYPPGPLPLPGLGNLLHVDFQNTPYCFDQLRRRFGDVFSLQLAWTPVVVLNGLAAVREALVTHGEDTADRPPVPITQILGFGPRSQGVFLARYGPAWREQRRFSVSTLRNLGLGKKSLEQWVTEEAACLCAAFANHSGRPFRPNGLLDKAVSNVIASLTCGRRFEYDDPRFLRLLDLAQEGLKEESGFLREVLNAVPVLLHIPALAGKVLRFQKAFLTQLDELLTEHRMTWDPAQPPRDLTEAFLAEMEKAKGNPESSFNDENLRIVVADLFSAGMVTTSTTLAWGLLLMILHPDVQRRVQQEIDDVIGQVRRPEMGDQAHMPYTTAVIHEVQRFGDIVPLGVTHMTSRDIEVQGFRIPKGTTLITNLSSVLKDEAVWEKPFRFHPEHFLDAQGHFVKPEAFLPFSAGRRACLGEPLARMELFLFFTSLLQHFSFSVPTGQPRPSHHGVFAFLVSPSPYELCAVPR
# Procedure: as §1
# [2] = classified by IC50 value, read-out: inhibitory potency class on CYP3A4
# [3] = recombinant human enzyme, luminescent assay, 30 min incubation, read-out: IC50 CYP3A4 (converted)
# [4] = classified by IC50 value, read-out: inhibitory potency class on CYP1A2
# [5] = recombinant human enzyme, luminescent assay, 30 min incubation, read-out: IC50 CYP1A2 (converted)
# [6] = classified by IC50 value, read-out: inhibitory potency class on CYP2C9
# [7] = recombinant human enzyme, luminescent assay, 30 min incubation, read-out: IC50 CYP2C9 (converted)
# [8] = classified by IC50 value, read-out: inhibitory potency class on CYP2C19
# [9] = recombinant human enzyme, luminescent assay, 30 min incubation, read-out: IC50 CYP2C19 (converted)
# [10] = classified by IC50 value, read-out: inhibitory potency class on CYP2D6
# [11] = recombinant human enzyme, luminescent assay, 45 min incubation, read-out: IC50 CYP2D6 (converted)
Compound,IC50 (recombinant human CYP3A4; [2]) [µM],IC50 (recombinant human CYP3A4; [3]) [µM],IC50 (recombinant human CYP1A2; [4]) [µM],IC50 (recombinant human CYP1A2; [5]) [µM],IC50 (recombinant human CYP2C9; [6]) [µM],IC50 (recombinant human CYP2C9; [7]) [µM],"IC50 [1, 8] [µM]","IC50 [1, 9] [µM]",IC50 (CYP2D6; [10]) [µM],IC50 (CYP2D6; [11]) [µM],"IC50 at 45 min (CYP2D6; human, classified by IC50 value, read-out: inhibitory potency class on CYP2D6) [µg/mL]"
"O=C1c2ccc(O)cc2OC(c2ccc(O)c(O)c2)C1O (stereo not drawn) [Fustin, 2-(3,4-dihydroxyphenyl)-3,7-dihydroxy-2,3-dihydrochromen-4-one]",> 347,1610,> 347,17100,> 347,1870,69.4 to 347,223,> 347,18500,–
"O=c1c(O)c(-c2ccc(O)c(O)c2)oc2cc(O)ccc12 [Fisetin, 2-(3,4-dihydroxyphenyl)-3,7-dihydroxychromen-4-one]",> 349,1080,< 69.9,1.61,< 69.9,18.9,< 69.9,< 0.00349,69.9 to 349,163,> 100
